Where two headings read alike, the source gives them in different places.
What was measured:
[1] = Pharmacokinetics of ceftolozane/tazobactam in healthy volunteers; assay type: in vivo, human; conditions: single 1.5 g intravenous dose of CXA-201, healthy male adults
[2] = Population pharmacokinetic analysis of 10 clinical studies (Example 7); assay type: in vivo, human
Excerpt: Base model development. […] Intrinsic covariates analyzed included body weight, age, gender, ethnicity, and baseline calculated CrCL). The CrCL was estimated using the Cockcroft-Gault formula: […] […] Final population PK model: evaluation and performance. […] Smaller shrinkage ≦0.2 indicates good individual estimates.

[3] = Phase 1 single dose PK of 750 mg ceftolozane/tazobactam in severe renal impairment and ESRD on hemodialysis (Example 8); assay type: in vivo, human; conditions: for AUC(0-t) / Cmax / half-life / Tmax / AUC(0-inf) / clearance / Vd: both sexes, human, plasma; for Cmax: read-out: Cmax, Mean (CV %); for half-life: read-out: t1/2, Mean (CV %) (converted); for Tmax: read-out: tmax, Median (minimum, maximum); for AUC(0-inf): read-out: AUC∞, Mean (CV %); for clearance: read-out: CL, Mean (CV %) (converted); for Vd: read-out: Vss, Mean (CV %)
Procedure: This was a Phase 1, multicenter, prospective, open-label study of 750 mg ceftolozane/tazobactam (as CXA-201) administered IV in male and female adult subjects with severe renal impairment (estimated CLCR<30 mL/min) and subjects with end-stage renal disease (ESRD) on hemodialysis (HD). The primary objective of the study was to determine the PK profile of ceftolozane/tazobactam in subjects with severe renal impairment and subjects with ESRD on HD and to determine the effect of HD on the clearance of ceftolozane/tazobactam.
Subjects with severe renal impairment received a single IV 1-hour infusion of 750 mg ceftolozane/tazobactam on Day 1. […] Subjects in this cohort received an IV dose of 750 mg ceftolozane/tazobactam as a 1 hour infusion immediately after their first HD session on Day 1 (postdialysis, approximately 72 hours prior to the next HD session) and a second dose of ceftolozane/tazobactam approximately 2 hours before their second HD session on Day 4 of the study. Infusion of ceftolozane/tazobactam was completed approximately 1 hour before the start of HD.
Subjects in both cohorts had urine (if not anuric) and plasma samples collected for determination of levels of ceftolozane, tazobactam and the M1 metabolite of tazobactam; subjects in the ESRD on HD cohort also had dialysate fluid samples collected for PK assessment. Plasma, urine, and dialysate levels of ceftolozane, tazobactam, and its metabolite M1 collected over a prespecified interval were determined by LC/MS/MS assay.
All subjects underwent hemodialysis for 3 to 4 hours using a high-flux membrane (either 1.4, 1.8, or 1.9 m^2) on Days 1, 4, and 6 as scheduled. Average blood flow rate was 264 to 600 mL/min and average dialysis flow rate was either 600 or 800 mL/min for all subjects with ESRD.

[4] = clinical; conditions: human, in vivo
Excerpt: CXA-201 plasma concentrations from 6 subjects with ESRD following a single dose without HD and a second dose with HD were used to develop a pPK model (Phoenix NLME, Pharsight).

[5] = Phase I PK studies in subjects with varying degrees of renal function (Example 11); assay type: in vivo, human
Excerpt: Male and female subjects, aged 18 to 79 years, with varying degrees of renal function were enrolled in two, prospective, open-label, phase I studies of intravenous ceftolozane/tazobactam. A total of 36 subjects were enrolled into cohorts based on degree of renal function: normal (n=11), mild impairment (n=6), moderate impairment (n=7), severe impairment (n=6), and ESRD on HD (n=6). To ensure subjects with ESRD were receiving effective HD, a target adequacy of HD calculated from the pre- and post-blood urea nitrogen ratios (Kt/V) of at least 1.2 for a minimum of 3 months prior to enrollment was required. Renal impairment groups were classified according to the 2010 U.S.

[6] = cited from earlier work
[7] = cited from earlier work; remark: listed apart in the source
[8] = intravenous, 750 mg, ESRD on HD, second infusion Day 4, start of infusion to end of dialysis
[9] = iv, 750 mg, ESRD on HD, Day 1 IV infusion of 750 mg (non-hemodialysis phase)
[10] = iv, 750 mg, ESRD on HD, second IV infusion of 750 mg on Day 4 (during HD)
[11] = iv, 750 mg, severe renal impairment, single IV 1-hour infusion of 750 mg ceftolozane/tazobactam
[12] = moderate renal impairment, single 1,000 mg/500 mg dose
[13] = severe renal impairment, single 500 mg/250 mg dose

Question: Which “excreted in the urine as unchanged parent drug” value [1] does the source give for `C[C@]1(Cn2ccnn2)[C@H](C(=O)O)N2C(=O)C[C@H]2S1(=O)=O` [Tazobactam] here?
Answer: Its value is “More than 80%”.

Question: What about the “between-subject variability (BSV) of CL” value ([2]; final population PK model) of the same molecule?
Answer: Its value is 50.2%.

Question: And the “between-subject variability (BSV) of Vc” value ([2]; final population PK model)?
Answer: Its value is 52.5%.

Question: What about the “inter-compartment clearance (CL2)” value ([2]; final population PK model) of the same molecule?
Answer: Its value is 3.13 L/h.

Question: What about the “volume of distribution in the peripheral compartment (Vp)” value ([2]; final population PK model) of the same molecule?
Answer: Its value is 4.29 L.

Question: What about the clearance ([2]; human, plasma, intravenous, final population PK model, read-out: CL, population estimate (converted)) of the same molecule?
Answer: The clearance was 300 mL/min.

Question: What about the “Vc, population estimate” value ([2]; subjects without infection) of the same molecule?
Answer: The value was 14.2 L.

Question: What about the AUC(0-t) ([3]; intravenous, 750 mg, ESRD on HD, second infusion Day 4, approximately 6 hours from start of infusion to end of dialysis, read-out: AUClast, Mean (CV %)) of the same molecule?
Answer: Its AUC(0-t) is 28800 ng·h/mL.

Question: What about the Cmax [3, 8] of the same molecule?
Answer: The Cmax was 15700 ng/mL.

Question: What about the half-life [3, 8] of the same molecule?
Answer: The half-life was 0.98 h.

Question: And the Tmax [3, 8]?
Answer: The Tmax was 1 h.

Question: What about the AUC(0-t) ([3]; intravenous, 750 mg, subjects with ESRD, read-out: Exposure (AUC48h) After HD (Day 1), Median (Range)) of the same molecule?
Answer: Its AUC(0-t) is 107000 ng·h/mL.

Question: And the AUC(0-t) ([3]; intravenous, 750 mg, subjects with ESRD, read-out: Exposure (AUC48h) During HD (Day 3), Median (Range))?
Answer: The AUC(0-t) was 37100 ng·h/mL.

Question: What about the AUC(0-inf) [3, 9] of the same molecule?
Answer: Its AUC(0-inf) is 105000 ng·h/mL.

Question: And the clearance [3, 9]?
Answer: The clearance was 50 mL/min.

Question: And the Cmax [3, 9]?
Answer: The Cmax was 21200 ng/mL.

Question: And the Vd [3, 9]?
Answer: Its Vd is 17 L.

Question: And the half-life [3, 9]?
Answer: Its half-life is 5.23 h.

Question: And the AUC(0-t) ([3]; iv, 750 mg, ESRD on HD, Day 1 IV infusion of 750 mg (non-hemodialysis phase), through 48 hours, read-out: AUClast, Mean (CV %))?
Answer: The AUC(0-t) was 103000 ng·h/mL.

Question: And the Cmax [3, 10]?
Answer: The Cmax was 15600 ng/mL.

Question: And the half-life [3, 10]?
Answer: The half-life was 5.2 h.

Question: And the AUC(0-t) ([3]; iv, 750 mg, ESRD on HD, second IV infusion of 750 mg on Day 4 (during HD), through 44 hours, read-out: AUClast, Mean (CV %))?
Answer: The AUC(0-t) was 38400 ng·h/mL.

Question: What about the AUC(0-t) ([3]; iv, 750 mg, severe renal impairment, single IV 1-hour infusion of 750 mg ceftolozane/tazobactam, through 48 hours, read-out: AUClast, Mean (CV %)) of the same molecule?
Answer: Its AUC(0-t) is 50300 ng·h/mL.

Question: What about the Cmax [3, 11] of the same molecule?
Answer: Its Cmax is 15200 ng/mL.

Question: What about the AUC(0-inf) [3, 11] of the same molecule?
Answer: The AUC(0-inf) was 52400 ng·h/mL.

Question: What about the clearance [3, 11] of the same molecule?
Answer: Its clearance is 85 mL/min.

Question: What about the Vd [3, 11] of the same molecule?
Answer: Its Vd is 16.5 L.

Question: What about the half-life [3, 11] of the same molecule?
Answer: Its half-life is 2.6 h.

Question: And the Tmax ([3]; ESRD on HD, second IV infusion of 750 mg on Day 4 (during HD))?
Answer: The Tmax was 1 h.

Question: And the removed by dialysis ([3]; subjects with ESRD on HD)?
Answer: Its removed by dialysis is ~56%.

Question: And the “AUC48h Ratio (Day 3:1), Median (Range)” value ([3]; subjects with ESRD, during HD vs after HD)?
Answer: Its value is 0.44 (0.26 − 0.53).

Question: And the “Percent Removed, Median (Range)” value ([3]; subjects with ESRD, hemodialysis)?
Answer: Its value is 56 (47 − 74) Percent.

Question: And the Vd [4]?
Answer: The Vd was 11 L.

Question: What about the clearance [4] of the same molecule?
Answer: The clearance was 51.2 mL/min.

Question: What about the “increase of CL by HD” value [4] of the same molecule?
Answer: The value was 6.6 fold.

Question: And the “increase of Vc by HD” value [4]?
Answer: Its value is 1.5 fold.

Question: What about the extraction ratio ([5]; 1 h after the start of HD) of the same molecule?
Answer: The extraction ratio was 48%.

Question: And the extraction ratio ([5]; 2 h after the start of HD)?
Answer: Its extraction ratio is 54%.

Question: What about the “median Cmax in plasma higher compared with normal renal function, dose normalized” value ([5]; ESRD during non-HD) of the same molecule?
Answer: The value was 2.4 fold.

Question: What about the “average extraction ratio during HD” value ([5]; ESRD on HD) of the same molecule?
Answer: Its value is 53%.

Question: And the “median RDHD (percent reduction in plasma concentration during HD)” value ([5]; ESRD on HD)?
Answer: Its value is 95%.

Question: What about the “reduction in overall exposure based on the AUC0-∞ on and off HD” value ([5]; ESRD on HD) of the same molecule?
Answer: The value was ~56%.

Question: What about the “plasma concentration rebound peak following HD, of the original Cmax” value ([5]; ESRD, period following HD) of the same molecule?
Answer: The value was ~6%.

Question: What about the extraction ratio ([5]; at end of HD) of the same molecule?
Answer: Its extraction ratio is 55%.

Question: And the clearance ([5]; both sexes, human, dialysate and plasma, intravenous, ESRD on HD, read-out: median dialysis clearance (CLD) (converted))?
Answer: Its clearance is 73.2 mL/min.

Question: And the half-life ([5]; both sexes, human, plasma, intravenous, ESRD on HD, read-out: t1/2 during the HD period (converted))?
Answer: The half-life was 0.91 h.

Question: What about the “increase of median AUC0-∞ compared with normal renal function” value [5, 12] of the same molecule?
Answer: The value was 2.2 fold.

Question: What about the “increase of median Cmax compared with normal renal function” value [5, 12] of the same molecule?
Answer: The value was 1.6 fold.

Question: And the “increase of median AUC0-∞ compared with dose-normalized exposure in normal renal function” value [5, 13]?
Answer: Its value is 3.8 fold.

Question: What about the “increase of median Cmax compared with dose-normalized exposure in normal renal function” value [5, 13] of the same molecule?
Answer: Its value is 1.9 fold.

Question: And the “terminal elimination half-life (t½β)” value ([6]; healthy volunteers)?
Answer: Its value is ~1 h.

Question: And the “Terminal elimination half-lives (t1/2)” value ([6]; patients with normal renal function)?
Answer: Its value is ~1 h.

Question: And the “excreted in the urine as the unchanged parent drug” value ([6]; remainder as inactive M1 metabolite)?
Answer: Its value is 80%.

Question: What about the protein binding [7] of the same molecule?
Answer: The protein binding was ~30%.

From patent publication US20150072968A1, “Treating Infections with Ceftolozane/Tazobactam in Subjects Having Impaired Renal Function” (Calixa Therapeutics, Inc., priority 2013, published 2015)
